Results taken from patent US20080214558A1, “PYRIMIDINE-2,4-DIAMINE DERIVATIVES AND THEIR USE AS JAK2 KINASE INHIBITORS” (SUPERGEN, INC., priority 2007, published 2008).

What was measured:
[1] = system: STAT5-phospho-Y694 in HEL cells expressing the V617F mutant of JAK2; experiment: Western blot of STAT5 phosphorylation in HEL cells expressing JAK2 V617F; assay type: cell-based; conditions: Homo sapiens, 24 hours, Western blot densitometry, read-out: EC50 for reduction of STAT5 phosphorylation
Procedure: (§1) In order to detect specific inhibition of JAK2 enzyme in cell culture, Western blot assays may also be performed. For this, cells which have been treated with a potential JAK2 inhibitor are lysed with a buffer specific for the isolation and preservation of proteins (1% Nonidet P-40, 120 mM NaCl, 30 mM Tris pH 7.4, 1:100 Protease Inhibitor Cocktail III [Calbiochem/EMD Biosciences], 1:100 Phosphatase Inhibitor Cocktail 1 [Sigma-Aldrich, Saint Louis, Mo.], 1:100 Phosphatase Inhibitor Cocktail 2 [Sigma-Aldrich, Saint Louis, Mo.]). The protein concentration in these lysates is then quantified using the BCA Protein Assay Kit (Pierce). Known amounts of protein, e.g. 50 ug, are loaded onto 10% SDS-polyacrylamide gels and are subjected to reducing, denaturing SDS-PAGE. Electrophoresed proteins are transferred to a nitrocellulose membrane, which is then probed with antibodies to STAT5, pSTAT5 (Tyr 694), STAT3, and pSTAT3 (Tyr 705). As STAT5 and STAT3, at Tyrosine 694 and Tyrosine 705 respectively, are substrates for JAK2, measuring the amount of phosphorylation at these sites in treated cells provides a means by which to evaluate the efficacy of JAK2 inhibitors.
Briefly, HEL cells were plated in 25 cm^2 tissue culture flasks and incubated in the presence of varying concentrations of Compound Nos. 1 or 2 for 24 hours. Following incubation, cells were lysed and total protein isolated and quantified. 50 μg of total protein was electrophoresed and transferred to nitrocellulose membrane, at which point Western Blot analysis was performed using an antibody to STAT5-phospho-Y694. Comparisons to total STAT5 were made. Densitometry analysis was performed in order to quantify the amount of STAT5 phosphorylation in these treated cells.

[2] = system: STAT3-phospho-Y705 in AGS gastric cancer cell line; experiment: Western blot of STAT3 phosphorylation in AGS cells; assay type: cell-based; conditions: 24 hours, 5-10 uM, Western blot densitometry
Procedure: as §1, with “Electrophoresed proteins are transferred to a nitrocellulose membrane, which is then probed with antibodies to STAT5, pSTAT5 (Tyr 694), STAT3, and pSTAT3 (Tyr 705). As STAT5 and STAT3, at Tyrosine 694 and Tyrosine 705 respectively, are substrates for JAK2, measuring the amount of phosphorylation at these sites in treated cells provides a means by which to evaluate the efficacy of JAK2 inhibitors.” left out
(§2) In this example, Compound 1-4 is shown to reduce the JAK2-dependent phosphorylation of STAT3 and STAT5 in the AGS gastric cancer cell line. […] Following incubation, cells were lysed and total protein isolated and quantified. […] Densitometry analysis was performed in order to quantify the amount of STAT3 and STAT5 phosphorylation in these treated cells. Phospho-STAT3 and phospho-STAT5 were compared to total STAT3 and STAT5 and the proportion of STAT phosphorylation relative to untreated controls was determined.

[3] = system: nuclear STAT3 in AGS gastric cancer cells; experiment: STAT3 nuclear translocation high-content assay (STAT3 HitKit, ArrayScan VTi); assay type: cell-based
Procedure: When STAT3 is phosphorylated by JAK2, it forms a homodimer and is translocated to the nucleus to effect transcription of a number of target genes involved in cell proliferation. AGS gastric cancer cells were inoculated onto 96 well plates, and incubated in the presence of 5 μM Compound 1-4 for 1, 5 or 24 hours. Following incubation, cells were stained using the STAT3 HitKit (Thermo-Fisher) and detected using the Molecular Translocation BioApplication on a ArrayScan VTi high-content screening instrument (Thermo-Fisher). Nuclei were pseudostained blue (Hoechst) and STAT3 was pseudostained green (FITC).
Nuclear STAT3 was reduced by greater than 50% 24 h after treatment with Compound 1-4 when compared with nuclear STAT3 levels in untreated samples.

[4] = biological target: T1, JAK2 V617F (Homo sapiens, UniProt O60674, V617F); experiment: Invitrogen SelectScreen profiling, mutant JAK2; assay type: biochemical; conditions: read-out: IC50 against mutant JAK2 V617F (SelectScreen)
T1 construct: These enzymes include both the JH1 and JH2 homology regions of the protein; purchased Invitrogen Corporation (SelectScreen assay service, Carlsbad, Calif.)
T1 sequence (O60674 532-1132 V617F limits assumed): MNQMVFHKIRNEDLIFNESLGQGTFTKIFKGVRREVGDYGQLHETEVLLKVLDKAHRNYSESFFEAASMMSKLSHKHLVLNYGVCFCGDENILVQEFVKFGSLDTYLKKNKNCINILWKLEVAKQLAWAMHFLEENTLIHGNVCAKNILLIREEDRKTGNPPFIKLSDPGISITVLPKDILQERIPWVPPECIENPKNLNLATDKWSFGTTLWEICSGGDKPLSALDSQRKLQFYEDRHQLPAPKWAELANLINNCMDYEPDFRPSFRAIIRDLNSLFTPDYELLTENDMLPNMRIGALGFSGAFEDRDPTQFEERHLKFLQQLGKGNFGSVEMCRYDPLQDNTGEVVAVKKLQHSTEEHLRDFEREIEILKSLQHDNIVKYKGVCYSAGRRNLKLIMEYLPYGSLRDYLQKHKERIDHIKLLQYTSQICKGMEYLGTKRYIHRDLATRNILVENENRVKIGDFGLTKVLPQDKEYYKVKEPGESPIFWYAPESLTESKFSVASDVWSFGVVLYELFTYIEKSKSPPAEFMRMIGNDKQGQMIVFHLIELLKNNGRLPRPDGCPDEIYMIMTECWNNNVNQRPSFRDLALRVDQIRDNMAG
Source text: (§3) The JAK2 V617F mutant isoform has recently come into focus for its role in neoplastic transformation. Thus, compounds may also be testing using the SelectScreen™ assay service (Invitrogen Corporation, Carlsbad, Calif.), which includes both wild-type and V617F mutant isoforms of JAK2. These enzymes include both the JH1 and JH2 homology regions of the protein, and differ only at amino acid 617.

[5] = system: STAT5-phospho-Y694 in AGS gastric cancer cell line; experiment: Western blot of STAT5 phosphorylation in AGS cells; assay type: cell-based; conditions: 24 hours, 5-10 uM, Western blot densitometry
Procedure: as §1, with “Electrophoresed proteins are transferred to a nitrocellulose membrane, which is then probed with antibodies to STAT5, pSTAT5 (Tyr 694), STAT3, and pSTAT3 (Tyr 705). As STAT5 and STAT3, at Tyrosine 694 and Tyrosine 705 respectively, are substrates for JAK2, measuring the amount of phosphorylation at these sites in treated cells provides a means by which to evaluate the efficacy of JAK2 inhibitors.” left out
as §2

[6] = system: various cancer cell lines; experiment: Cell-Titer-Glo cell survival/proliferation assay; assay type: cell-based; conditions: screened between 300 nM and 10 nM, read-out: IC50 from % survival (Cell-Titer-Glo)
Procedure: Cell culture-based assays can be used to evaluate the ability of compounds of the invention to inhibit one or more cellular activities, such as cancer cell growth and/or survival. Numerous cancer cell lines can be obtained from the American Type Culture Collection (ATCC) and other sources. Briefly, cells are seeded into 96-well, tissue-culture treated, opaque white plates (Thermo Electron, Vantaa, Finland), at between 600 and 14000 cells per well, depending on the speed of cell proliferation, in 100 ul of appropriate growth medium (determined by the ATCC). Cells are then exposed to the appropriate concentration of drug and allowed to grow in its presence for 96 hours. Following this, 100 ul of Cell-Titer-Glo reagent (Promega, Inc., Madison, Wis.) is added to each well. Plates are then shaken for 2 minutes at room temperature to allow for cell lysis and incubated for 10 minutes at room temperature to stabilize the luminescent signal. Similar to the Kinase-Glo assay reagent from Promega, this reagent contains both luciferase enzyme and its substrate luciferin. Luciferase, activated by ATP in the cell lysate, catalyzes the conversion of luciferin to oxyluciferin, a reaction which produces light. The amount of light produced is proportionate to the amount of ATP in the cell lysate, which is itself proportional to cell number and gives an index of cellular proliferation.
Compound Nos. 1-4, 1-7, 1-11 and 1-17 were screened at a dilution range between 300 nM and 10 nM as JAK2 inhibitors, with percent survival being determined using the Cell-Titer-Glo Assay.

[7] = biological target: T2, JAK2 kinase (Homo sapiens, UniProt O60674); experiment: Radiometric IC50Profiler assay (Millipore-Upstate); assay type: biochemical; design: purchased Millipore-Upstate (KinaseProfiler / IC50Profiler assay service, Dundee, UK); conditions: read-out: IC50 (IC50 Profiler data)
T2 sequence (O60674 whole entry): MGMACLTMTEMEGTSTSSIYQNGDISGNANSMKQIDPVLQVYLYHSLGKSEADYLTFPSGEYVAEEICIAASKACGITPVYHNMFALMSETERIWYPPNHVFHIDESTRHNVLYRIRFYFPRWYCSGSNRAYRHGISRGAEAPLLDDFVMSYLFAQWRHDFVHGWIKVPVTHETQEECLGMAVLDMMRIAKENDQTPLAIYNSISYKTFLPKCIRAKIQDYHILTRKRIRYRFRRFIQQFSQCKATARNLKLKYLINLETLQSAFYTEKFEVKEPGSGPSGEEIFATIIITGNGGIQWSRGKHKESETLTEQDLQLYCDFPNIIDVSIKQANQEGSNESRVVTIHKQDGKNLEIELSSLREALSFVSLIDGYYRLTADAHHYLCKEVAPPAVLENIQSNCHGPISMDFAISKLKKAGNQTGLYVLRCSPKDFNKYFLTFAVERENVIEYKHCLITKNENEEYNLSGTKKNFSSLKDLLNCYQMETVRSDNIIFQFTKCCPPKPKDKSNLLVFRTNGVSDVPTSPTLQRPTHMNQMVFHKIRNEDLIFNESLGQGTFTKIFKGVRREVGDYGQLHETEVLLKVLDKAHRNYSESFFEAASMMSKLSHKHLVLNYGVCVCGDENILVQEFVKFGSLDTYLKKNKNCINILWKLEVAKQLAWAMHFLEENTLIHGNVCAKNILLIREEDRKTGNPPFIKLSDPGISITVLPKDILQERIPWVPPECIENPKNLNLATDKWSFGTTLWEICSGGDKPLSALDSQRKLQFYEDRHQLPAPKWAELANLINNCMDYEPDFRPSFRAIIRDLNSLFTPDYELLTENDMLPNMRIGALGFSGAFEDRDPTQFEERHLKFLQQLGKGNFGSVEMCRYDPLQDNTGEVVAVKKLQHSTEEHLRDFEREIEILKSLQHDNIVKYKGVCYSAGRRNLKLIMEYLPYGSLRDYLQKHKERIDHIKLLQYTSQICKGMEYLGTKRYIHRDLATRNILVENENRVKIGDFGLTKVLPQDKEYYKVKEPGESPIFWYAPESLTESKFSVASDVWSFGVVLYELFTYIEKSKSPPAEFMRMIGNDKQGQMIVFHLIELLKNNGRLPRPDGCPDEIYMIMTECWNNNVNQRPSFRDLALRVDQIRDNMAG
Procedure: Compounds may also be tested using a radiometric assay; namely, the KinaseProfiler™ and IC50Profiler™ assay services (Millipore-Upstate, Dundee, UK). Briefly, compounds are tested at a single concentration (for single-point screening) or at a number of concentrations (for IC50 determinations) against recombinant JAK2 enzyme in the presence of radiolabeled ATP.

[8] = biological target: T3, JAK2 WT (Homo sapiens, UniProt O60674); experiment: Invitrogen SelectScreen profiling, wild-type JAK2; assay type: biochemical; conditions: read-out: IC50 against wild-type JAK2 (SelectScreen)
T3 construct: These enzymes include both the JH1 and JH2 homology regions of the protein; purchased Invitrogen Corporation (SelectScreen assay service, Carlsbad, Calif.)
T3 sequence (O60674 532-1132 limits assumed): as the sequence (O60674 532-1132 V617F limits assumed) above, with F86V counted along it
Source text: as §3

[9] = biological target: T2, JAK2 kinase; experiment: JAK2 kinase inhibition assay (Promega Kinase-Glo); assay type: biochemical; conditions: read-out: IC50 against JAK2 kinase (Promega Kinase-Glo assay)
Source text: One illustrative manner in which JAK2 kinase activity can be determined is by quantifying the amount of ATP remaining in solution after an in vitro JAK2 kinase reaction, such as the Kinase-Glo Assay Kit (Promega, Inc., Madison, Wis.). The amount of ATP remaining in the solution after the kinase reaction serves as a substrate for the luciferase to catalyze luciferin to oxyluciferin plus one photon of light. Thus, the luminescent signal read by the Luminoskan Ascent Instrument (Thermo Electron Corp., Milford, Mass.) correlates with the amount of ATP present after the kinase reaction and inversely correlates with the amount of kinase activity. This assay is efficient at determining the IC50 values of kinase inhibitors against the JAK2 kinase. These assays are set up in duplicate 50 ul volumes in white, flat bottom 96 well plates. Inhibitors are added to the solution of 1× kinase buffer, 6 uM ATP, 62.5 uM JAK2-specific substrate, 30 ng of active JAK2 enzyme, and water in serial dilutions ranging from micromolar to nanomolar concentrations. This solution is incubated at 30 degrees Celsius at 360 rpm for two hours. Following the incubation, 50 ul of Kinase-Glo reagent is added to each well, including all positive and negative control wells, and incubated at room temperature for 15 minutes. […] The IC50 values can then be calculated for each inhibitor tested.
IC50 values against JAK2 kinase (using the Promega Kinase-Glo assay) were measured for Compound Nos. 1-4, 1-7, 1-11 and 1-17.

Row | EC50 [1] [nM] | IC50 [4] [nM] | IC50 [7] [nM] | IC50 [8] [nM] | IC50 [9] [nM] | SMILES | STAT3 phosphorylation relative to untreated controls [2] | STAT3 staining localisation ([3]; 5 μM, 1, 5 or 24 hours) | Reduction of nuclear STAT3 compared with untreated samples ([3]; 5 μM, 24 h after treatment) | STAT5 phosphorylation relative to untreated controls [5] | IC50 [6] [nM]
1 | 299 | < 1000 | < 1000 | < 1000 | < 1000 | CN1CCN(c2ccc(Nc3nccc(Nc4ccc(F)c(Cl)c4)n3)cc2)CC1 [Compound 1-4, N4-(3-chloro-4-fluorophenyl)-N2-(4-(4-methylpiperazin-1-yl)phenyl)pyrimidine-2,4-diamine] | reduced levels | confined outside the nucleus | greater than 50% | reduced levels | < 10
2 | 4 | < 1000 | < 1000 | < 1000 | < 1000 | CN1CCN(c2ccc(Nc3nccc(Nc4cccc(CC#N)c4)n3)cc2)CC1 [Compound 1-7, 2-(3-(2-(4-(4-Methylpiperazin-1-yl)phenylamino)pyrimidin-4-ylamino)phenyl)acetonitrile] | – | – | – | – | < 10
3 | 65.8 | < 1000 | < 1000 | < 1000 | < 1000 | CN1CCN(c2ccc(Nc3nccc(Nc4cccc(CC#N)c4)n3)cc2F)CC1 [Compound 1-11, 2-(3-(2-(3-Fluoro-4-(4-methylpiperazin-1-yl)phenylamino)pyrimidin-4-ylamino)phenyl)acetonitrile] | – | – | – | – | < 10
4 | 266 | < 1000 | < 1000 | < 1000 | < 1000 | CN1CCN(C(=O)c2ccc(Nc3nccc(Nc4cccc(CC#N)c4)n3)cc2)CC1 [Compound 1-17, 2-(3-(2-(4-(4-methylpiperazine-1-carbonyl)phenylamino)pyrimidin-4-ylamino)phenyl)acetonitrile] | – | – | – | – | < 10
